Experimental data: patent US20190133997A1, “ARTEMISININ ANALOG, AND USE, METHOD, AND COMPOSITION FOR PROMOTING LIPID CATABOLISM AND IMPROVING SUGAR METABOLISM” (FUDAN UNIVERSITY, priority 2016, published 2019)

Assays:
[1] = test system: 3T3-L1 white preadipocytes; test: Artemether-induced browning of 3T3-L1 white preadipocytes during differentiation (morphology, UCP1 mRNA by Real time qPCR); type: cell-based; conditions: vs control, concentration-dependent tendency
Experimental: 2.5×10^5 3T3-L1 white preadipocytes were seeded in a 3.5 cm cell culture dish, and cultured for 3 days in a maintenance medium. Cells proliferated to contact inhibition. 48 hours after the contact inhibition was reached, the medium was changed to induced differentiation medium, and the induced differentiation mixture including 0.5 mMol/L 3-isobutyl-1-methylxanthine (Mix), 1 μMol/L dexamethasone (Dex) and 1 μg/ml insulin (Insulin) was added. The induced differentiation mixture is referred to as MDI for short. The day of adding MDI was defined as Day 0 of differentiation. After 2 days of culture in the above medium, fresh induced differentiation medium was replaced, and 1 μg/ml insulin was added to the medium. After another 2 days of culture, the fresh induced differentiation medium was replaced, and the medium was changed every other day until the culture was differentiated to Day 8. […]
3T3-L1 differentiated to mature was induced in a 3.5 cm culture dish, with the method of differentiation referring to Method 1.4.1. […] The precipitate was dissolved in 60 μl DEPC water, and quantified by Colibri Tepertec and stored at −80° C. […]
The relative amount of mRNA was calculated according to the AACT method, with 18S being used as an internal reference. […]

high fat-fed mice [2] = test: Intraperitoneal artemether, weight gain induced by high-fat diet; type: in vivo, Male C57BL/6J mice; conditions: intraperitoneal 20 mg/kg twice a week, eight weeks
Experimental: (§1) The mice were breeded in the SPF animal laboratory of the Laboratory Animal Center of Fudan University at a room temperature of 21° C.-23° C. with a 12-hour light/dark cycle. […] When the mice were grown to 8-week old, they were randomly divided into a control group and an administration group, with 8 mice in each group. While the mice were fed with a high-fat diet, artemether was injected intraperitoneally. Artemether for intraperitoneal injection was stored at 4° C. in coconut oil at a storage concentration of 6 mg/ml (20 mMol/L), and protected from light. Mice in administration group were injected with artemether at a dose of 20 mg/kg weight. Administration was twice a week for eight weeks, and the weight of the mice was recorded weekly.

high fat-fed mice [3] = test: Intraperitoneal artemether, cold exposure and UCP1 immunohistochemistry of subcutaneous fat in high fat-fed mice; type: in vivo, Male C57BL/6J mice; conditions: high-fat diet, intraperitoneal 20 mg/kg twice a week, eight weeks
Experimental: as §1, with “eight weeks. Mice were fasted and housed in a breeding box at 4° C. The rectal temperature was measured every 2 hours. The mice were sacrificed by cervical dislocation after 6 hours,” for “eight weeks,”, “the inguinal fat was removed for histological analysis. The histological analysis including tissue fixation, paraffin embedding, sectioning and immunohistochemistry experiment” for “the weight”, “of UCP1” for “of the mice”, “was commissioned by Shanghai Saige Biotech Co., Ltd.” for “was recorded weekly.”

ob/ob mice = test: Intraperitoneal artemether, fatty liver in diabetic ob/ob mice; type: in vivo, Male ob/ob mice; conditions: intraperitoneal 20 mg/kg twice a week, eight weeks
Experimental: Ob/ob mice were breeded in the SPF animal laboratory of the Laboratory Animal Center of Fudan University at a room temperature of 21° C.-23° C. with a 12-hour light/dark cycle. When the mice were grown to 4-week old, they were randomly divided into a control group and an administration group, with 4 mice in each group. Mice in administration group were injected intraperitoneally with artemether. Artemether for intraperitoneal injection was stored at 4° C. in coconut oil at a storage concentration of 6 mg/ml (20 mMol/L), and protected from light. Ob/ob mice in administration group were injected with artemether at a dose of 20 mg/kg weight. Administration was twice a week for eight weeks. The mice were sacrificed by cervical dislocation, and liver tissues of mice were removed, fixed and paraffin embedded. The histological analysis was commissioned by Shanghai Saige Biotech Co., Ltd.

[4] = Intraperitoneal artemether, growth of healthy mice on normal diet; type: in vivo, Male C57BL/6J mice; conditions: intraperitoneal 20 mg/kg twice a week, eight weeks, vs control
Experimental: The mice were breeded in the SPF animal laboratory of the Laboratory Animal Center of Fudan University at a room temperature of 21° C.-23° C. with a 12-hour light/dark cycle. When the mice were grown to 8-week old, they were randomly divided into a control group and an administration group, with 8 mice in each group. Mice in administration group were injected intraperitoneally with artemether. Artemether for intraperitoneal injection was stored at 4° C. in coconut oil at a storage concentration of 6 mg/ml (20 mMol/L), and protected from light. Mice in administration group were injected with artemether at a dose of 20 mg/kg weight. Mice in control group were injected with 100 μl coconut oil. Administration was twice a week for eight weeks and the weight of the mice was recorded weekly.

CO[C@H]1O[C@@H]2O[C@@]3(C)CC[C@H]4[C@H](C)CC[C@@H]([C@H]1C)[C@@]24OO3 [artemether]
mRNA level of UCP1 ([1]; 3T3-L1, different concentrations of ART, Real time qPCR, 18S reference): significantly up-regulated | cell morphology of 3T3-L1 ([1]; artemether 5, 10 or from Day 0 of differentiation to maturity): exhibited typical brown adipocyte-like characteristics | weight gain of mice (high fat-fed mice [2]): significantly slower than that of mice in control group | weight of mice (high fat-fed mice [2]; statistically different after three weeks): significantly lower than that of mice in control group | body temperature in an environment of 4° C. (high fat-fed mice [3]): significantly higher than that of mice in control group | UCP1 expression in subcutaneous fat (immunohistochemistry) (high fat-fed mice [3]; after 6 hours at 4° C.): exhibited significant UCP1 expression | fatty liver of ob/ob mice (HE staining) (ob/ob mice): significantly relieved | weight gain of healthy mice [4]: not significantly different | weight of healthy mice [4]: no difference
